Measured values reported in patent US20130274338A1, “PHARMACEUTICAL COMPOSITIONS COMPRISING DGLA, 15-OHEPA, AND/OR 15-HETRE AND METHODS OF REDUCING SEBUM PRODUCTION USING SAME” (priority 2012, published 2013).

Test system: P. acnes
Test: Agar dilution method, growth of P. acnes and MIC, combinations with a fatty acid spike
Format: cell-based, Propionibacterium acnes
Parameters: key to Growth Index Plate 1 / Growth Index Plate 2 / Growth Index Plate 3 / Growth Index Avg: +++: confluent growth (comparable to control); ++: less confluent growth; +: marked reduction in growth to multiple tiny, single colonies; −: no growth present
[1] = compound at 0.2 mg/mL + 0.01 mg/mL 15-HETrE
[2] = compound at 0.2 mg/mL + 0.05 mg/mL 15-HETrE
[3] = compound at 0.2 mg/mL + 0.05 mg/mL 15-OHEPA
[4] = compound at 0.2 mg/mL + 0.1 mg/mL 15-OHEPA
[5] = compound at 0.2 mg/mL + 0.4 mg/mL dGLA
[6] = compound at 0.2 mg/mL + 1.0 mg/mL dGLA
[7] = compound at 0.4 mg/mL + 0.01 mg/mL 15-HETrE
[8] = compound at 0.4 mg/mL + 0.05 mg/mL 15-HETrE
[9] = compound at 0.4 mg/mL + 0.05 mg/mL 15-OHEPA
[10] = compound at 0.4 mg/mL + 0.1 mg/mL 15-OHEPA
[11] = compound at 0.4 mg/mL + 0.4 mg/mL dGLA
[12] = compound at 0.4 mg/mL + 1.0 mg/mL dGLA
[13] = compound at 0.6 mg/mL + 0.01 mg/mL 15-HETrE
[14] = compound at 0.6 mg/mL + 0.05 mg/mL 15-HETrE
[15] = compound at 0.6 mg/mL + 0.05 mg/mL 15-OHEPA
[16] = compound at 0.6 mg/mL + 0.1 mg/mL 15-OHEPA
[17] = compound at 0.6 mg/mL + 0.4 mg/mL dGLA
[18] = compound at 0.6 mg/mL + 1.0 mg/mL dGLA
[19] = compound at 0.8 mg/mL + 0.01 mg/mL 15-HETrE
[20] = compound at 0.8 mg/mL + 0.05 mg/mL 15-HETrE
[21] = compound at 0.8 mg/mL + 0.05 mg/mL 15-OHEPA
[22] = compound at 0.8 mg/mL + 0.1 mg/mL 15-OHEPA
[23] = compound at 0.8 mg/mL + 0.4 mg/mL dGLA
[24] = compound at 0.8 mg/mL + 1.0 mg/mL dGLA
[25] = compound at 1.0 mg/mL + 0.01 mg/mL 15-HETrE
[26] = compound at 1.0 mg/mL + 0.05 mg/mL 15-HETrE
[27] = compound at 1.0 mg/mL + 0.05 mg/mL 15-OHEPA
[28] = compound at 1.0 mg/mL + 0.1 mg/mL 15-OHEPA
[29] = compound at 1.0 mg/mL + 0.4 mg/mL dGLA
[30] = compound at 1.0 mg/mL + 1.0 mg/mL dGLA

In the case of `O=C(OOC(=O)c1ccccc1)c1ccccc1` [Benzoyl Peroxide], the “Growth Index Avg” value [1] is reported as “+++”, the “Growth Index Plate 1” value [1] is reported as “+++” and the “Growth Index Plate 2” value [1] is reported as “+++”. The “Growth Index Plate 3” value [1] was “+++”, the “Growth Index Avg” value [2] was “−” and the “Growth Index Plate 1” value [2] was “−”. The “Growth Index Plate 2” value [2] was “−”, the “Growth Index Plate 3” value [2] was “−” and the “Growth Index Avg” value [3] was “+++”. For the same compound, the “Growth Index Plate 1” value [3] was “+++”, the “Growth Index Plate 2” value [3] was “+++” and the “Growth Index Plate 3” value [3] was “+++”. The “Growth Index Avg” value [4] was “−”, the “Growth Index Plate 1” value [4] was “−” and the “Growth Index Plate 2” value [4] was “−”. For the same compound, the “Growth Index Plate 3” value [4] was “−”, the “Growth Index Avg” value [5] was “+++” and the “Growth Index Plate 1” value [5] was “+++”. The “Growth Index Plate 2” value [5] was “+++”, the “Growth Index Plate 3” value [5] was “+++” and the “Growth Index Avg” value [6] was “++”. For the same compound, the “Growth Index Plate 1” value [6] was “++”, the “Growth Index Plate 2” value [6] was “++” and the “Growth Index Plate 3” value [6] was “+”. For the same compound, the “Growth Index Avg” value [7] was “+++”, the “Growth Index Plate 1” value [7] was “+++” and the “Growth Index Plate 2” value [7] was “+++”. The “Growth Index Plate 3” value [7] was “+++”, the “Growth Index Avg” value [8] was “−” and the “Growth Index Plate 1” value [8] was “−”. The “Growth Index Plate 2” value [8] was “−”, the “Growth Index Plate 3” value [8] was “−” and the “Growth Index Avg” value [9] was “++”. For the same compound, the “Growth Index Plate 1” value [9] was “++”, the “Growth Index Plate 2” value [9] was “++” and the “Growth Index Plate 3” value [9] was “++”. For the same compound, the “Growth Index Avg” value [10] was “−”, the “Growth Index Plate 1” value [10] was “−” and the “Growth Index Plate 2” value [10] was “−”. The “Growth Index Plate 3” value [10] was “−”, the “Growth Index Avg” value [11] was “−” and the “Growth Index Plate 1” value [11] was “+”. For the same compound, the “Growth Index Plate 2” value [11] was “−”, the “Growth Index Plate 3” value [11] was “−” and the “Growth Index Avg” value [12] was “−”. The “Growth Index Plate 1” value [12] was “−”, the “Growth Index Plate 2” value [12] was “+” and the “Growth Index Plate 3” value [12] was “−”. For the same compound, the “Growth Index Avg” value [13] was “++”, the “Growth Index Plate 1” value [13] was “++” and the “Growth Index Plate 2” value [13] was “++”. For the same compound, the “Growth Index Plate 3” value [13] was “++”, the “Growth Index Avg” value [14] was “−” and the “Growth Index Plate 1” value [14] was “−”. For the same compound, the “Growth Index Plate 2” value [14] was “−”, the “Growth Index Plate 3” value [14] was “−” and the “Growth Index Avg” value [15] was “+”. For the same compound, the “Growth Index Plate 1” value [15] was “+”, the “Growth Index Plate 2” value [15] was “+” and the “Growth Index Plate 3” value [15] was “+”. The “Growth Index Avg” value [16] was “−”, the “Growth Index Plate 1” value [16] was “−” and the “Growth Index Plate 2” value [16] was “−”. For the same compound, the “Growth Index Plate 3” value [16] was “−”, the “Growth Index Avg” value [17] was “−” and the “Growth Index Plate 1” value [17] was “−”. For the same compound, the “Growth Index Plate 2” value [17] was “−”, the “Growth Index Plate 3” value [17] was “−” and the “Growth Index Avg” value [18] was “−”. For the same compound, the “Growth Index Plate 1” value [18] was “−”, the “Growth Index Plate 2” value [18] was “−” and the “Growth Index Plate 3” value [18] was “−”. The “Growth Index Avg” value [19] was “+”, the “Growth Index Plate 1” value [19] was “+” and the “Growth Index Plate 2” value [19] was “+”. The “Growth Index Plate 3” value [19] was “+”, the “Growth Index Avg” value [20] was “−” and the “Growth Index Plate 1” value [20] was “−”. The “Growth Index Plate 2” value [20] was “−”, the “Growth Index Plate 3” value [20] was “−” and the “Growth Index Avg” value [21] was “−”. The “Growth Index Plate 1” value [21] was “−”, the “Growth Index Plate 2” value [21] was “−” and the “Growth Index Plate 3” value [21] was “−”. The “Growth Index Avg” value [22] was “−”, the “Growth Index Plate 1” value [22] was “−” and the “Growth Index Plate 2” value [22] was “−”. For the same compound, the “Growth Index Plate 3” value [22] was “−”, the “Growth Index Avg” value [23] was “−” and the “Growth Index Plate 1” value [23] was “−”. The “Growth Index Plate 2” value [23] was “−”, the “Growth Index Plate 3” value [23] was “−” and the “Growth Index Avg” value [24] was “−”. For the same compound, the “Growth Index Plate 1” value [24] was “−”, the “Growth Index Plate 2” value [24] was “−” and the “Growth Index Plate 3” value [24] was “−”. The “Growth Index Avg” value [25] was “−”, the “Growth Index Plate 1” value [25] was “−” and the “Growth Index Plate 2” value [25] was “−”. For the same compound, the “Growth Index Plate 3” value [25] was “−”, the “Growth Index Avg” value [26] was “−” and the “Growth Index Plate 1” value [26] was “−”. For the same compound, the “Growth Index Plate 2” value [26] was “−”, the “Growth Index Plate 3” value [26] was “−” and the “Growth Index Avg” value [27] was “−”. The “Growth Index Plate 1” value [27] was “−”, the “Growth Index Plate 2” value [27] was “−” and the “Growth Index Plate 3” value [27] was “−”. For the same compound, the “Growth Index Avg” value [28] was “−”, the “Growth Index Plate 1” value [28] was “−” and the “Growth Index Plate 2” value [28] was “−”. The “Growth Index Plate 3” value [28] was “−”, the “Growth Index Avg” value [29] was “−” and the “Growth Index Plate 1” value [29] was “−”. The “Growth Index Plate 2” value [29] was “−”, the “Growth Index Plate 3” value [29] was “−” and the “Growth Index Avg” value [30] was “−”. The “Growth Index Plate 1” value [30] was “−”, the “Growth Index Plate 2” value [30] was “−” and the “Growth Index Plate 3” value [30] was “−”. For the same compound, the “growth of P. Acnes in combination with 15-HETrE, compared with 15-HETrE used alone” value (in combination with 15-HETrE) was “did not reduce the growth”.
